US8303999B2, “Natural extract containing xanthohumol, method for the production thereof and products produced therefrom” (Ta-Xan AG, priority 2004, dated 2012)
≈ marks a conversion by molar mass, not a printed value. Read-outs that look alike come from different tables or passages of the source.

Assay: solubility limit of XN in aqueous solution (water)
Type: physicochemical
Settings: read-out: solubility limit of XN in typical aqueous solutions
Experimental: For producing roasted extract comprising XN a hot aqueous extract of the ground roasted products e.g. of barley, wheat, rye as well as the corresponding malts, coffee beans or cacao beans is prepared. A hop extract comprising XN is added thereto at the beginning of the heating period. The extraction of xanthohumol in the extractions of the roasted products leads to a XN content which is by far higher than the solubility limit of XN in typical aqueous solutions. This amounts to 1.3 mg/l of XN at a water temperature of 23° C. and to 1.1 mg/l of XN at a water temperature of 8° C.

Question: Which solubility (water temperature of 8° C.) does the source give for COc1cc(O)c(CC=C(C)C)c(O)c1C(=O)/C=C/c1ccc(O)cc1 [XN, xanthohumol] here?
Answer: The solubility was 1.1 µg/mL (≈ 3.1 µM).

Question: What about the solubility (water temperature of 23° C.) of the same compound?
Answer: Its solubility is 1.3 µg/mL (≈ 3.67 µM).
